The data set relates to CCRIS mutagenicity, Ames/micronucleus/aberration tests. The experiment in a line: CCRIS mutagenicity studies.
The mark [1] stands for this setting: Test System: AMES SALMONELLA TYPHIMURIUM, Strain/Indicator: TA98, Metabolic Activation: NONE, Method: STANDARD PLATE.
The mark [2] stands for this setting: Test System: AMES SALMONELLA TYPHIMURIUM, Strain/Indicator: TA100, Metabolic Activation: NONE, Method: STANDARD PLATE.
Where [3] appears, read: Test System: AMES SALMONELLA TYPHIMURIUM, Strain/Indicator: TA102, Metabolic Activation: NONE, Method: STANDARD PLATE.
Setting [4] is: Test System: AMES SALMONELLA TYPHIMURIUM, Strain/Indicator: TA98, Metabolic Activation: NONE, Method: PREINCUBATION
[5] abbreviates: Test System: AMES SALMONELLA TYPHIMURIUM, Strain/Indicator: TA100, Metabolic Activation: NONE, Method: PREINCUBATION

The structures appear in SMILES notation. The source made the active and inactive calls. How the calls were made is not given here.

Regarding `O=[N+]([O-])c1ccc2c(c1)CCc1c-2ccc2c1CCCC2`, the mutagenic call runs as follows: (Test System: AMES SALMONELLA TYPHIMURIUM, Strain/Indicator: TA98(1,8-DNP6), Metabolic Activation: NONE) “active; positive”; (Test System: AMES SALMONELLA TYPHIMURIUM, Strain/Indicator: TA98(1,8-DNP6), Metabolic Activation: RAT, LIVER, S-9, AROCLOR 1254) “active; positive”; (Test System: AMES SALMONELLA TYPHIMURIUM, Strain/Indicator: TA98(NR), Metabolic Activation: NONE) “active; positive”; (Test System: AMES SALMONELLA TYPHIMURIUM, Strain/Indicator: TA98(NR), Metabolic Activation: RAT, LIVER, S-9, AROCLOR 1254) “active; positive”; (Test System: AMES SALMONELLA TYPHIMURIUM, Strain/Indicator: TA98, Metabolic Activation: NONE) “active; positive”; (Test System: AMES SALMONELLA TYPHIMURIUM, Strain/Indicator: TA98, Metabolic Activation: RAT, LIVER, S-9, AROCLOR 1254) “active; positive”. For the same compound, the mutagenic call is, setting by setting: (Test System: AMES SALMONELLA TYPHIMURIUM, Strain/Indicator: TA100(NR), Metabolic Activation: NONE) “inactive; negative”; (Test System: AMES SALMONELLA TYPHIMURIUM, Strain/Indicator: TA100(NR), Metabolic Activation: RAT, LIVER, S-9, AROCLOR 1254) “active; positive”; (Test System: AMES SALMONELLA TYPHIMURIUM, Strain/Indicator: TA100, Metabolic Activation: NONE) “active; positive”; (Test System: AMES SALMONELLA TYPHIMURIUM, Strain/Indicator: TA100, Metabolic Activation: RAT, LIVER, S-9, AROCLOR 1254) “active; positive”; (Test System: AMES SALMONELLA TYPHIMURIUM, Strain/Indicator: TA104, Metabolic Activation: NONE) “active; positive”; (Test System: AMES SALMONELLA TYPHIMURIUM, Strain/Indicator: TA104, Metabolic Activation: RAT, LIVER, S-9, AROCLOR 1254) “active; positive”.

As to `CC1=CCC(O)(C(C)C)CC1` (stereo not drawn), the mutagenic call under setting [1] was “inactive; negative”; the mutagenic call (Test System: AMES SALMONELLA TYPHIMURIUM, Strain/Indicator: TA98, Metabolic Activation: RAT, LIVER, S-9, Method: STANDARD PLATE) is “inactive; negative”; the mutagenic call under setting [2] is “inactive; negative”; the mutagenic call (Test System: AMES SALMONELLA TYPHIMURIUM, Strain/Indicator: TA100, Metabolic Activation: RAT, LIVER, S-9, Method: STANDARD PLATE) is “inactive; negative”; the mutagenic call under setting [3] was “inactive; negative”; the mutagenic call (Test System: AMES SALMONELLA TYPHIMURIUM, Strain/Indicator: TA102, Metabolic Activation: RAT, LIVER, S-9, Method: STANDARD PLATE) is “inactive; negative”.

Turning to `CCOC(/C=C(\C)CCC=C(C)C)OCC`, the mutagenic call (Test System: AMES SALMONELLA TYPHIMURIUM, Strain/Indicator: TA97, Metabolic Activation: HAMSTER, LIVER, S-9, AROCLOR 1254 (10%), Method: PREINCUBATION) is “inactive; negative”; the mutagenic call (Test System: AMES SALMONELLA TYPHIMURIUM, Strain/Indicator: TA97, Metabolic Activation: NONE, Method: PREINCUBATION) was “inactive; negative”; the mutagenic call (Test System: AMES SALMONELLA TYPHIMURIUM, Strain/Indicator: TA97, Metabolic Activation: RAT, LIVER, S-9, AROCLOR 1254 (10%), Method: PREINCUBATION) was “inactive; negative”; the mutagenic call (Test System: AMES SALMONELLA TYPHIMURIUM, Strain/Indicator: TA98, Metabolic Activation: HAMSTER, LIVER, S-9, AROCLOR 1254 (10%), Method: PREINCUBATION) is “inactive; negative”; the mutagenic call under setting [4] was “inactive; negative”; the mutagenic call (Test System: AMES SALMONELLA TYPHIMURIUM, Strain/Indicator: TA98, Metabolic Activation: RAT, LIVER, S-9, AROCLOR 1254 (10%), Method: PREINCUBATION) was “inactive; negative”. Besides, the mutagenic call was “inactive; negative” (Test System: AMES SALMONELLA TYPHIMURIUM, Strain/Indicator: TA100, Metabolic Activation: HAMSTER, LIVER, S-9, AROCLOR 1254 (10%), Method: PREINCUBATION); “inactive; negative” under setting [5]; “inactive; negative” (Test System: AMES SALMONELLA TYPHIMURIUM, Strain/Indicator: TA100, Metabolic Activation: RAT, LIVER, S-9, AROCLOR 1254 (10%), Method: PREINCUBATION); “active; positive” (Test System: AMES SALMONELLA TYPHIMURIUM, Strain/Indicator: TA1535, Metabolic Activation: HAMSTER, LIVER, S-9, AROCLOR 1254 (10%), Method: PREINCUBATION); “inactive; negative” (Test System: AMES SALMONELLA TYPHIMURIUM, Strain/Indicator: TA1535, Metabolic Activation: NONE, Method: PREINCUBATION); “active; positive” (Test System: AMES SALMONELLA TYPHIMURIUM, Strain/Indicator: TA1535, Metabolic Activation: RAT, LIVER, S-9, AROCLOR 1254 (10%), Method: PREINCUBATION).

For the compound `CCCCCCCCCCCCOC[N+](C)(C)Cc1ccccc1`, the mutagenic call (Test System: BACILLUS SUBTILIS, Strain/Indicator: H17/REC, Metabolic Activation: NONE, Method: STANDARD PLATE) was “inactive; negative” and the mutagenic call (Test System: BACILLUS SUBTILIS, Strain/Indicator: M45, Metabolic Activation: NONE, Method: STANDARD PLATE) was “inactive; negative”.

For `CC(Br)Br`, the mutagenic call reads like this: under setting [3], “inactive; negative”; (Test System: AMES SALMONELLA TYPHIMURIUM, Strain/Indicator: TA2638, Metabolic Activation: NONE, Method: STANDARD PLATE) “inactive; negative”; (Test System: E. COLI, Strain/Indicator: WP2 (PKM101), Metabolic Activation: NONE, Method: STANDARD PLATE) “inactive; negative”; (Test System: E. COLI, Strain/Indicator: WP2 UVRA (PKM101), Metabolic Activation: NONE, Method: STANDARD PLATE) “inactive; negative”.

As to `COc1cccc(/C=C/c2ccc([N+](=O)[O-])cc2)c1`, the mutagenic call (Test System: AMES SALMONELLA TYPHIMURIUM, Strain/Indicator: TA98(NR), Metabolic Activation: NONE, Method: STANDARD PLATE) is “active; positive”; the mutagenic call (Test System: AMES SALMONELLA TYPHIMURIUM, Strain/Indicator: TA98(NR), Metabolic Activation: S-9, Method: STANDARD PLATE) was “active; positive”; the mutagenic call under setting [1] is “active; positive”; the mutagenic call (Test System: AMES SALMONELLA TYPHIMURIUM, Strain/Indicator: TA98, Metabolic Activation: S-9, Method: STANDARD PLATE) is “active; positive”; the mutagenic call (Test System: AMES SALMONELLA TYPHIMURIUM, Strain/Indicator: TA100 (NR), Metabolic Activation: NONE, Method: STANDARD PLATE) was “active; positive”; the mutagenic call (Test System: AMES SALMONELLA TYPHIMURIUM, Strain/Indicator: TA100 (NR), Metabolic Activation: S-9, Method: STANDARD PLATE) is “active; positive”. In addition, the mutagenic call is, setting by setting: under setting [2], “active; positive”; (Test System: AMES SALMONELLA TYPHIMURIUM, Strain/Indicator: TA100, Metabolic Activation: S-9, Method: STANDARD PLATE) “active; positive”.

For the compound `CC(=O)ON(OC(C)C)C(=O)c1ccccc1`, the mutagenic call runs as follows: under setting [2], “active; positive”; (Test System: AMES SALMONELLA TYPHIMURIUM, Strain/Indicator: TA100, Metabolic Activation: RAT, S-9, AROCLOR, Method: STANDARD PLATE) “active; positive”.

`CC(=O)OCc1ccccc1[N+](=O)[O-]`: the mutagenic call was “inactive; negative” under setting [4]; “inactive; negative” under setting [5]; “inactive; negative” (Test System: AMES SALMONELLA TYPHIMURIUM, Strain/Indicator: TA100, Metabolic Activation: RAT, LIVER, S-9, AROCLOR 1254, Method: PREINCUBATION).

As to `Cc1cc2cccc3ccc4cc5ccccc5c1c4c32`, the mutagenic call is “active; positive” (Test System: AMES SALMONELLA TYPHIMURIUM, Strain/Indicator: TA100, Metabolic Activation: RAT, INTACT HEPATOCYTES, AROCLOR 1254, Method: PREINCUBATION) and “active; positive” (Test System: AMES SALMONELLA TYPHIMURIUM, Strain/Indicator: TA100, Metabolic Activation: RAT, NADPH-FORTIFIED HOMOGENIZED HEPATOCYTES, AROCLOR 1254, Method: PREINCUBATION).

With `Cc1cc2c(c3ccc4ccccc4c13)CCC2`, the mutagenic call by setting is: under setting [2], “inactive; negative”; (Test System: AMES SALMONELLA TYPHIMURIUM, Strain/Indicator: TA100, Metabolic Activation: RAT, LIVER, S-9, AROCLOR 1254, Method: STANDARD PLATE) “inactive; negative”.
